The results in this text go back to US20250333394A1, “Tiparp Inhibitor Compounds” (AbbVie Inc., priority 2024, published 2025).

One experiment addresses TIPARP GST-(TEV) (Homo sapiens (Human), UniProt Q7Z3E1). The experiment can be described thus: TR-FRET binding assay, TIPARP. To be noted: for IC50: TR-FRET, Probe 1, 2 hours incubation; for PARP1/TIPARP IC50 Ratio: ratio of PARP1 GST IC50 to TIPARP GST-(TEV) IC50. An excerpt: The full-length cDNA encoding the human TIPARP (NP_001171647.1, UniProtKB-Q7Z3E1) of 657 amino acids was the template to generate the expression construct. […] The TIPARP fusion protein includes GST, glutathione S-transferase, a 26 kDa protein whose DNA sequence is frequently integrated into expression vectors for production of recombinant proteins. A […], was cloned into vector pFastBacTM 1 (Thermo Fisher Scientific) with an N-terminal GST tag followed by a TEV protease site to produce the TIPARP fusion protein, TIPARP GST-(TEV). TR-FRET assays were used to measure the binding of compounds to TIPARP and PARP1, and to characterize biochemical selectivity. Compound stock solutions (10 mM) were serially diluted in 3-fold increments in dimethyl sulfoxide (DMSO). Diluted compounds were dispensed (30 nL) into white ProxiPlate-384-well plates (PerkinElmer, Waltham, MA, USA) using an ECHO® 550 acoustic Labcyte dispenser (Beckman-Coulter Life Sciences, Indianapolis, IN, USA) to achieve a final starting concentration of 30 μM to 0.5 nM in the assay. This was followed by addition of 5 μL of 2× protein/probe mix (Table 2) made in assay buffer (Tris-HCl 50 mM pH 8.0; 5 mM MgCl2; 5 μM ZnCl2; 1 mM DTT (dithiothreitol); 0.15% BSA (bovine serum albumin) (w/v); and 0.01% TritonX-100 (w/v)) at final concentrations listed in Table 2. Subsequently, 5 μL of 2× antibody (Tb-labeled anti-GST antibody, Thermo Fisher Scientific, Waltham, MA, USA) in HEPES buffered saline was added to each well at a final concentration of 1 nM. The samples were then incubated for 2 hours under ambient conditions. Fluorescence was measured and TR-FR ET ratios were determined on an EnVision multimode plate reader (PerkinElmer) using a 520 nanometer (nm) excitation wavelength and collecting fluorescence emission at 495 nm. […] [table]

The next experiment concerns the target PARP1 GST (Homo sapiens (Human), UniProt P09874). The experiment can be described thus: TR-FRET binding assay, PARP1. To be noted: Probe 2, 2 hours incubation. As to the method: TR-FRET assays were used to measure the binding of compounds to TIPARP and PARP1, and to characterize biochemical selectivity. Compound stock solutions (10 mM) were serially diluted in 3-fold increments in dimethyl sulfoxide (DMSO). Diluted compounds were dispensed (30 nL) into white ProxiPlate-384-well plates (PerkinElmer, Waltham, MA, USA) using an ECHO® 550 acoustic Labcyte dispenser (Beckman-Coulter Life Sciences, Indianapolis, IN, USA) to achieve a final starting concentration of 30 μM to 0.5 nM in the assay. This was followed by addition of 5 μL of 2× protein/probe mix (Table 2) made in assay buffer (Tris-HCl 50 mM pH 8.0; 5 mM MgCl2; 5 μM ZnCl2; 1 mM DTT (dithiothreitol); 0.15% BSA (bovine serum albumin) (w/v); and 0.01% TritonX-100 (w/v)) at final concentrations listed in Table 2. Subsequently, 5 μL of 2× antibody (Tb-labeled anti-GST antibody, Thermo Fisher Scientific, Waltham, MA, USA) in HEPES buffered saline was added to each well at a final concentration of 1 nM. The samples were then incubated for 2 hours under ambient conditions. Fluorescence was measured and TR-FR ET ratios were determined on an EnVision multimode plate reader (PerkinElmer) using a 520 nanometer (nm) excitation wavelength and collecting fluorescence emission at 495 nm.
On the technique in general: TR-FRET usually uses a lanthanide donor and a delayed reading to cut background.

The test system of another experiment is NCI-H1373 cells. The experiment is described as follows: NCI-H1373 CellTiter-Glo cell assay for TIPARP inhibition. It counts as cell-based, human. To be noted: Homo sapiens, NCI-H1373, 144 h; 6 days, 100 nM 10-Cl-BBQ in medium; read-out: NCI-H1373 CTG EC50. On the procedure:
The NCI-H1373 CellTiter-Glo® assay was used to determine cell numbers after TIPARP inhibition-induced cell cycle arrest, and enabled screening of compounds for cellular TIPARP inhibition potency.
Compound stock solutions (10 mM) were serially diluted in 3-fold increments in dimethyl sulfoxide. Sample aliquots (120 nL) were dispensed into Corning® 384-well Flat Clear Bottom White Polystyrene TC-treated Microplates (Corning Life Sciences, Corning, NY, USA) using an ECHO® 550 acoustic Labcyte dispenser (Beckman-Coulter Life Sciences, Indianapolis, IN, USA) to achieve final concentrations between 30 μM and 0.5 nM in the assay. This was followed by the addition of 40 μL of 1000 NCI-H1373 cells (ATCC®, Manassas, VA, USA) in complete growth medium RPMI 1640 growth medium (Thermo Fisher Scientific, Waltham, MA, USA) supplemented with 20 mg/L L-glutamate, 25 mM HEPES (4-(2-hydroxyethyl)-1-piperazineethanesulfonic acid), 10% (v/v) heat inactivated FBS (fetal bovine serum), 1% (w/v) penicillin-streptomycin, and 100 nM 10-Cl-BBQ (10-chloro-7H-benzimidazo[2,1-a]benz[de]isoquinolin-7-one, (Tocris, Minneapolis, MN, USA). Duplicate cell plates with 40 μL cells/well along with various concentrations of compounds were kept in Nunc™ Square BioAssay Dishes (Thermo Fisher Scientific) at 98% relative humidity in a 5% C02 incubator at 37° C. for 6 days. On day 7, plates were moved to ambient lab conditions for 10 minutes until the temperature equilibrated. Following equilibration, CellTiter-Glo® Luminescent Cell Viability Assay reagent (Promega™, Madison, WI, USA) was added (15 μL) to each well of the plates. After a 20 minutes incubation, luminescence was detected using a ViewLux™ microplate imager (PerkinElmer, Waltham, MA, USA). Data analysis was performed using GraphPad Prism (Dotmatics, Boston, MA, USA).

Another experiment has as its system DLD-1 parent cells. The experiment is described as follows: CellTiter-Glo DLD-1 parent cell assay. In kind it is cell-based. The note with it: Homo sapiens, 144 h, 6 days, read-out: DLD-1 CTG EC50. An excerpt:
(§1) The DLD-1 BRCA2 (−/−) CellTiter-Glo® assay measured the synthetic lethality of PARP1/2 inhibitors and was used as a surrogate to allow measurement of activity of both PARP1 and PARP2 in cells. If PARP1 and PARP2 are inhibited and are trapped onto chromatin during DNA replication, there is replication fork stalling and accumulation of double strand breaks. In BR CA wild-type cells, the resulting double strand DNA breaks are repaired via homologous recombination. In cells with mutation of BRCA1 or BRCA2, homologous recombination repair of DNA double strand breaks is defective, and cell death occurs after PARP1/2 inhibitor treatment (Lord C J, Ashworth A. PARP inhibitors: synthetic lethality in the clinic. Science. 2017 Mar. 17; 355(6330):1152-1158). Testing compounds in viability assays with the DLD-1-BR CA 2 (−/−) and DLD-1 parent cell enabled assessment on PARP1/2-dependent (cytotoxicity in the BRCA2 (−/−) cells only) vs. non-selective cytotoxicity in both cell lines.
(§2) Compound stock solutions (10 mM) were serially diluted in 3-fold increments in dimethyl sulfoxide (DMSO). Sample aliquots (120 nL) were dispensed into Corning® 384-well Flat Clear Bottom White Polystyrene TC-treated Microplates (Corning Life Sciences, Corning, NY, USA) using an ECHO® 550 acoustic Labcyte dispenser (Beckman-Coulter Life Sciences, Indianapolis, IN, USA) to achieve concentrations between 30 μM and 0.5 nM in the assay. In the assay, 40 μL of 500 DLD-1 parent cells (HORIZON® Therapeutics, Deerfield, IL, USA) or 40 μL of 1200 DLD-1-BRCA2 (−/−) cells (HORIZON Therapeutics) in complete growth medium containing RPMI 1640 growth medium (ThermoFisher Scientific, Waltham, MA, USA) supplemented with 20 mg/L L-glutamate, 25 mM HEPES (4-(2-hydroxyethyl)-1-piperazineethanesulfonic acid), 10% (v/v) heat inactivated FBS (fetal bovine serum), and 1% (w/v) Penicillin-Streptomycin were added.
(§3) Duplicate cell plates with 40 μL cells/well along with various concentrations of compounds were kept in Nunc™ Square BioAssay Dishes (Thermo Fisher Scientific) at 98% relative humidity in a 5% CO2 incubator at 37° C. for 6 days. On day 7, plates were moved to ambient lab conditions for 10 minutes until the temperature equilibrated. Following equilibration, CellTiter-Glo® Luminescent Cell Viability Assay reagent (Promega™, Madison, WI, USA) was added (15 μL) to each well of the plates. After a 20 minutes incubation, luminescence was detected using a ViewLux™ microplate imager (PerkinElmer, Waltham, MA, USA). Data analysis was performed using GraphPad Prism (Dotmatics, Boston, MA, USA).
For orientation: ATP-based viability assays read luminescence as a measure of living cells.

The next experiment deals with DLD-1 BRCA2 (−/−) cells. The experiment is described as follows: CellTiter-Glo DLD-1 BRCA2 (−/−) cell assay for PARP1/2 inhibition. In kind it is cell-based. The note with it: Homo sapiens, 144 h, 6 days, read-out: DLD-1 BRCA2 (−/−) CTG EC50.
Description: as §1, §2, §3

Sequence of TIPARP GST-(TEV) (Q7Z3E1 441-657): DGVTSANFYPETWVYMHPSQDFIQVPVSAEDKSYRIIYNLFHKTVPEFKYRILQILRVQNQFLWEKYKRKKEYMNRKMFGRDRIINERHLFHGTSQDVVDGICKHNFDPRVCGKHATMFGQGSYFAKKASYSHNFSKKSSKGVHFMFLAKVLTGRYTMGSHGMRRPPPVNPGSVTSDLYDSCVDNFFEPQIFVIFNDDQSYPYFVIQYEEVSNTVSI
Sequence of PARP1 GST (P09874 whole entry): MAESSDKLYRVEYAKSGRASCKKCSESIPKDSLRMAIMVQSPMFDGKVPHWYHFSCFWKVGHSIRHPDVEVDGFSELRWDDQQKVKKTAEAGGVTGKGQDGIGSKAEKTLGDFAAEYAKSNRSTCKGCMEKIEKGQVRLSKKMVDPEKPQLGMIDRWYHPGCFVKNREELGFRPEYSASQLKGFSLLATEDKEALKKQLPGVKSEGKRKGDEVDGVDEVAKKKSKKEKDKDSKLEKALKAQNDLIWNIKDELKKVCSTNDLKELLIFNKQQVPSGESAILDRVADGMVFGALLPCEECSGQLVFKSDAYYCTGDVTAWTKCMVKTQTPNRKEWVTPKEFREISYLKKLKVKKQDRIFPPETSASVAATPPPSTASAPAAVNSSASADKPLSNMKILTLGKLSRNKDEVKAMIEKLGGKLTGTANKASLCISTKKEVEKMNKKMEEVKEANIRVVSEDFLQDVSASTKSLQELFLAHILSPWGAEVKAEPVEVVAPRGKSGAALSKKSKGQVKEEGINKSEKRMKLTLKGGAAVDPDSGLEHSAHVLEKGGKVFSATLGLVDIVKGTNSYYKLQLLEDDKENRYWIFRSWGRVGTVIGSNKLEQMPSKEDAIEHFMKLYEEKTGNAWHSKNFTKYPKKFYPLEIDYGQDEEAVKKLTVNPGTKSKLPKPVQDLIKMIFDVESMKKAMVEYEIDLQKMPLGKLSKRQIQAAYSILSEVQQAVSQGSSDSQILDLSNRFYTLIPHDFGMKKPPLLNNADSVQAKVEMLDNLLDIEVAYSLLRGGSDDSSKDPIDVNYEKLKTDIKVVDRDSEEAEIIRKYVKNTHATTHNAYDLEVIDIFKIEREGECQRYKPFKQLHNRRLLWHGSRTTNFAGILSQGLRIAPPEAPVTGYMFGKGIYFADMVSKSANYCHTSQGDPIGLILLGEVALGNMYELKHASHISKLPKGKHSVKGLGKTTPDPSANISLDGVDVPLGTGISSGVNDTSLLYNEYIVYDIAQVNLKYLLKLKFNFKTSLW

The term IC50 denotes the midpoint of a concentration-inhibition curve. A lower IC50 goes with inhibition by little substance. As for `C[C@@H]1CN(C(=O)[C@H]2C[C@@H](Cc3c[nH]c(=O)c(C(F)(F)F)c3)C2)CCN1c1ncc(C(F)(F)F)cn1` [Example 15, 5-{[(1S,3s)-3-{(3R)-3-methyl-4-[5-(trifluoromethyl)pyrimidin-2-yl]piperazine-1-carbonyl}cyclobutyl]methyl}-3-(trifluoromethyl)pyridin-2(1H)-one], the IC50 was determined as 2.15 nM at TIPARP GST-(TEV) and 417 nM on PARP1 GST. Further, the “PARP1/TIPARP IC50 Ratio” value on TIPARP GST-(TEV) came out at 194. Besides, the EC50 in the experiment on NCI-H1373 cells turned out to be 14.8 nM; in the experiment on DLD-1 parent cells, 10300 nM; in the experiment on DLD-1 BRCA2 (−/−) cells it was 1380 nM.
As for `C[C@H]1CN(C(=O)[C@H]2C[C@@H](Cc3c[nH]c(=O)c(C(F)(F)F)c3)C2)CCN1c1ncc(C(F)(F)F)cn1` [Example 16, 5-{[(1R,3s)-3-{(3S)-3-methyl-4-[5-(trifluoromethyl)pyrimidin-2-yl]piperazine-1-carbonyl}cyclobutyl]methyl}-3-(trifluoromethyl)pyridin-2(1H)-one], the results for the concentration for half-maximal inhibition (IC50) at TIPARP GST-(TEV) and at PARP1 GST were 3.34 nM and 1160 nM, respectively. Also, on TIPARP GST-(TEV), the “PARP1/TIPARP IC50 Ratio” value is listed as 347. Besides, the EC50 in the experiment on NCI-H1373 cells worked out at 19.1 nM; with DLD-1 parent cells, 15200 nM; in the experiment on DLD-1 BRCA2 (−/−) cells, 997 nM.
As to `C[C@H]1CN(c2ncc(C(F)(F)F)cn2)CCN1C(=O)[C@H]1C[C@@H](Cc2c[nH]c(=O)c(C(F)(F)F)c2)C1` [Example 17, 5-{[(1R,3s)-3-{(2S)-2-methyl-4-[5-(trifluoromethyl)pyrimidin-2-yl]piperazine-1-carbonyl}cyclobutyl]methyl}-3-(trifluoromethyl)pyridin-2(1H)-one], the concentration for half-maximal inhibition (IC50) on TIPARP GST-(TEV) came out at 5 nM; on PARP1 GST, 206 nM. Moreover, on TIPARP GST-(TEV), the “PARP1/TIPARP IC50 Ratio” value amounted to 41.2. Also, the results for the EC50 in the experiment on NCI-H1373 cells, in the experiment on DLD-1 parent cells and in the experiment with DLD-1 BRCA2 (−/−) cells were 34.1 nM, 9750 nM and 217 nM, respectively.
`C[C@@H]1CN(C(=O)[C@H]2C[C@@H](Cc3c[nH]c(=O)c(C(F)(F)F)c3)C2)CCN1c1ncc(C(C)(C)O)cn1` [Example 18, 5-{[(1S,3s)-3-{(3R)-4-[5-(2-hydroxypropan-2-yl)pyrimidin-2-yl]-3-methylpiperazine-1-carbonyl}cyclobutyl]methyl}-3-(trifluoromethyl)pyridin-2(1H)-one]: the IC50 at TIPARP GST-(TEV) was found to be 5.86 nM; at PARP1 GST it was 871 nM. In addition, the “PARP1/TIPARP IC50 Ratio” value on TIPARP GST-(TEV) is on record as 149. In addition, the EC50 was found to be 66.7 nM in the experiment with NCI-H1373 cells, 12000 nM with DLD-1 parent cells and 1050 nM with DLD-1 BRCA2 (−/−) cells.
On to `C[C@@H]1CN(c2ncc(C(C)(C)O)cn2)CCN1C(=O)[C@H]1C[C@@H](Cc2c[nH]c(=O)c(C(F)(F)F)c2)C1` [Example 19, 5-{[(1S,3s)-3-{(2R)-4-[5-(2-hydroxypropan-2-yl)pyrimidin-2-yl]-2-methylpiperazine-1-carbonyl}cyclobutyl]methyl}-3-(trifluoromethyl)pyridin-2(1H)-one], for which the results for the IC50 at TIPARP GST-(TEV) and on PARP1 GST were 5.79 nM and 6750 nM, respectively. Also, the “PARP1/TIPARP IC50 Ratio” value on TIPARP GST-(TEV) was 1170. Moreover, the results for the EC50 in the experiment on NCI-H1373 cells, in the experiment with DLD-1 parent cells and in the experiment on DLD-1 BRCA2 (−/−) cells were 71.2 nM, greater than 30000 nM and 18300 nM, respectively.
As to `C[C@H]1CN(C(=O)[C@H]2C[C@@H](Cc3c[nH]c(=O)c(C(F)(F)F)c3)C2)CCN1c1ncc(C(C)(C)O)cn1` [Example 20, 5-{[(1R,3s)-3-{(3S)-4-[5-(2-hydroxypropan-2-yl)pyrimidin-2-yl]-3-methylpiperazine-1-carbonyl}cyclobutyl]methyl}-3-(trifluoromethyl)pyridin-2(1H)-one], the IC50 was found to be 6.95 nM on TIPARP GST-(TEV) and 2130 nM on PARP1 GST. Also, at TIPARP GST-(TEV), the “PARP1/TIPARP IC50 Ratio” value came out at 306. The figures for the EC50 with NCI-H1373 cells, in the experiment with DLD-1 parent cells and with DLD-1 BRCA2 (−/−) cells were 81.7 nM, greater than 30000 nM and 3000 nM, respectively.
For `C[C@H]1CN(c2ncc(C(C)(C)O)cn2)CCN1C(=O)[C@H]1C[C@@H](Cc2c[nH]c(=O)c(C(F)(F)F)c2)C1` [Example 21, 5-{[(1R,3s)-3-{(2S)-4-[5-(2-hydroxypropan-2-yl)pyrimidin-2-yl]-2-methylpiperazine-1-carbonyl}cyclobutyl]methyl}-3-(trifluoromethyl)pyridin-2(1H)-one], the half-inhibitory concentration (IC50) on TIPARP GST-(TEV) worked out at 12.9 nM; on PARP1 GST it was 331 nM. Further, on TIPARP GST-(TEV), the “PARP1/TIPARP IC50 Ratio” value is 25.7. Besides, the EC50 was 160 nM in the experiment with NCI-H1373 cells, greater than 30000 nM in the experiment with DLD-1 parent cells and 1060 nM in the experiment on DLD-1 BRCA2 (−/−) cells.
